Data reported in ChEMBL document CHEMBL1201862, “PubChem BioAssay data set” (2004).
Values belong to the compound of their own block, whether it stands above or below them. Calls of active or inactive are those of the source. Rule as the data show it, for most assays here: actives have a measured IC50 and inactives only a lower limit.

Columns and labels:
Troponin, cardiac muscle = Troponin, cardiac muscle (Homo sapiens, UniProt P19429+P45379+P63316); experiment: compounds desensitizing RTF to calcium – biochemical, fluorescence, cardiac regulated thin filaments, triplicate IC50, dose response (AID 504742); format: protein-complex assay
INS1 = experiment: INS-1E survival protection against cytokine death – cell-based, luminescence, retest, dose response (AID 449756); format: functional; details: Rattus norvegicus;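 also: cell death triggered by IL-1 beta plus TNF-alpha plus IFN-gamma mixture; protective hits raise ATP signal compared with cytokine alone wells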
[1] = molecular target: T1, Alkaline phosphatase, tissue-nonspecific isozyme (Homo sapiens, UniProt P05186); experiment: potency against alkaline phosphatase TNAP – biochemical, luminescent, dose response, SAR follow-up (AID 1056)
T1 sequence (P05186 whole entry): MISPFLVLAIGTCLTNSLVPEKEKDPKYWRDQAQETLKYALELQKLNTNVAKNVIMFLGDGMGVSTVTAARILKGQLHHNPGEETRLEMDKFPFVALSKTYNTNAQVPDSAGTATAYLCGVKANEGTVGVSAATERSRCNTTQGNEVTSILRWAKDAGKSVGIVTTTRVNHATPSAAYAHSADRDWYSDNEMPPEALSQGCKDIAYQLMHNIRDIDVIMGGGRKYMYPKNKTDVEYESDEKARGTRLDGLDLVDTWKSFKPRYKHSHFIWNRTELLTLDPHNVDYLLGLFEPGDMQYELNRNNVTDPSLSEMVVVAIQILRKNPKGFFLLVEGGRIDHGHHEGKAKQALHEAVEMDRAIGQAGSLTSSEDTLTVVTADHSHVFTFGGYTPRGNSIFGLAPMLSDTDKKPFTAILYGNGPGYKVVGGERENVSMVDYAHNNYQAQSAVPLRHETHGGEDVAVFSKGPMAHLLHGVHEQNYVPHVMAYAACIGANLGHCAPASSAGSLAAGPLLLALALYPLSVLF

[2] = molecular target: Glyceraldehyde-3-phosphate dehydrogenase (Homo sapiens, UniProt P04406)
Sequence of Glyceraldehyde-3-phosphate dehydrogenase (P04406 whole entry): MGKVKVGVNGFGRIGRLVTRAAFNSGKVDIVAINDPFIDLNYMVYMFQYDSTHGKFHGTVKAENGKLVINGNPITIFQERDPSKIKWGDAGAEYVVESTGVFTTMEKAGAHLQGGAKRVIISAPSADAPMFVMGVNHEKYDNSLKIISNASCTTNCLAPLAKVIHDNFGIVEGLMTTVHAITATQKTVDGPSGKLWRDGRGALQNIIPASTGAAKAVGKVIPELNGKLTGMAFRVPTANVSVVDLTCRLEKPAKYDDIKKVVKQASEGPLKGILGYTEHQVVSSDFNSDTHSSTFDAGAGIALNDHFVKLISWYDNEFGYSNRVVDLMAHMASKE

[3] = molecular target: Alkaline phosphatase, placental type (Homo sapiens, UniProt P05187); experiment: human placental alkaline phosphatase inhibition – biochemical, luminescence, confirmation (AID 1512); format: functional
Sequence of Alkaline phosphatase, placental type (P05187 whole entry): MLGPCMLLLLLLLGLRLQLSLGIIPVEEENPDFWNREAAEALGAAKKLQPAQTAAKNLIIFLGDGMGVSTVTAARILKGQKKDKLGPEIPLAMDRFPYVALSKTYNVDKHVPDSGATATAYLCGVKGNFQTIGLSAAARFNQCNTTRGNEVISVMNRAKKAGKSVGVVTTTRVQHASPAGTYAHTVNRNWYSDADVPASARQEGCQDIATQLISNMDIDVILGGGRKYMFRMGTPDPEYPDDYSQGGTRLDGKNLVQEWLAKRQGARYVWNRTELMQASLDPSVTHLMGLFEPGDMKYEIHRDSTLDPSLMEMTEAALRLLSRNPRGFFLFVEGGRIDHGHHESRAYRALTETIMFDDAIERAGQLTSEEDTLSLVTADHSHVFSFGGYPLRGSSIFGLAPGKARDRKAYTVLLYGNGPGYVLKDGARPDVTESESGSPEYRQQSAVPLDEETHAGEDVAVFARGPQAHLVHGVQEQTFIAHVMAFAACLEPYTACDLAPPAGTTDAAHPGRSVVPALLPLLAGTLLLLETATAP

[4] = molecular target: Neuropeptides B/W receptor type 1 (Homo sapiens, UniProt P48145); experiment: human NPBW1 receptor blockade, IC50 – cell-based, fluorescence, dose response, late-stage follow-up (AID 463251); format: functional
Sequence of Neuropeptides B/W receptor type 1 (P48145 whole entry): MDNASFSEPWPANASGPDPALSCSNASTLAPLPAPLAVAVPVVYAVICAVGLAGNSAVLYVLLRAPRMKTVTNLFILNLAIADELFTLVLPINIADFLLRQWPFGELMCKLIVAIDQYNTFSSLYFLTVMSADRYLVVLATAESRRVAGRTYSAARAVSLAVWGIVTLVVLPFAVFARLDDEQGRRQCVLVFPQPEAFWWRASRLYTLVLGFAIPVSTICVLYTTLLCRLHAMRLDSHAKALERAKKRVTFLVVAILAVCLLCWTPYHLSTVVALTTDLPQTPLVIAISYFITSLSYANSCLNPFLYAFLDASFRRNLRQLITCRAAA

[5] = molecular target: Melanin-concentrating hormone receptor 1 (Homo sapiens, UniProt Q99705); experiment: Late-stage fluorescence-based counterscreen for antagonists of the G-protein coupled receptor 7 (GPR7): cell-based dose response assay to identify antagonists of the melanin-concentrating hormone receptor 1 (MCHR1). [Related pubchem assays (depositor defined):AID1861, AID1880, AID1952, AID2148, AID2251, AID2257, AID485339]; format: functional;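 also: stimulated with 30 nM MCH peptide agonist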
Sequence of Melanin-concentrating hormone receptor 1 (Q99705 whole entry): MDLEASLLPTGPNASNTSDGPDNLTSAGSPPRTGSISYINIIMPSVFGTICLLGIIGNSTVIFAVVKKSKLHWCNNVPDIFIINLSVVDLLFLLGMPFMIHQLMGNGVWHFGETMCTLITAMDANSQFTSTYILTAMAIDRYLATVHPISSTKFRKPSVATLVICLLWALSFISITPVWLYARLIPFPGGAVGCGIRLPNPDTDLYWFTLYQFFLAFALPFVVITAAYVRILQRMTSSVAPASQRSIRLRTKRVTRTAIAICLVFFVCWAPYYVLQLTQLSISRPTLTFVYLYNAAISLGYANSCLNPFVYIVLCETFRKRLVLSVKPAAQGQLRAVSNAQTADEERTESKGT

SMILES: COc1cccc(/C=N/Nc2nc3ccccc3n3cnnc23)c1O
- IC50 (Troponin, cardiac muscle): 7.6 µM (active)
- AC50 (INS1): 1.84 µM (active)

- IC50 [1]: > 100 µM (inactive)
- IC50 [2]: > 100 µM (not active)
- IC50 [3]: > 100 µM (inactive)
SMILES: COc1ccc(-c2cc(-c3ccc4ccccc4c3O)n[nH]2)cc1

- IC50 [4]: 2.2 µM (active)
- IC50 [5]: 5.5 µM (active)
SMILES: Cc1ccc(-n2ncc(Cl)c(Oc3ccc(C(F)(F)F)cc3)c2=O)cc1
